Laboratory results reported in PubChem BioAssay AID1963845 (Molecular Pharmacology Branch, DTP, NCI, 2024).

Test system: 429239-143-T-J1-PDC complex spheroid viability
Experiment: Anticancer human tumor 429239-143-T-J1-PDC patient-derived small cell lung carcinoma cell line growth inhibition [POLQ]
Settings: for IC50: curve of first compound; for viability, T/C: stronger effect = lower value
How it was run: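 Patient-derived tumour cells were co-cultured with HUVEC and mesenchymal stem cells as multicellular spheroids at 37 °C. They were treated with POLQ inhibitors (novobiocin, ART-558, RP6685) alone or combined with other agents. Top concentrations were at or near clinical Cmax (otherwise 10 microM; SN-38 at 1 microM), decreasing in half-log steps.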

[1] = second compound 0.0316 µM, first compound 0.0316 µM
[2] = second compound 0.0316 µM, first compound 0.1 µM
[3] = second compound 0.0316 µM, first compound 0.316 µM
[4] = second compound 0.0316 µM, first compound 1 µM
[5] = second compound 0.0316 µM, first compound 3.16 µM
[6] = second compound 0.0316 µM, first compound 10 µM
[7] = second compound 0.1 µM, first compound 0.0316 µM
[8] = second compound 0.1 µM, first compound 0.1 µM
[9] = second compound 0.1 µM, first compound 0.316 µM
[10] = second compound 0.1 µM, first compound 1 µM
[11] = second compound 0.1 µM, first compound 3.16 µM
[12] = second compound 0.1 µM, first compound 10 µM
[13] = second compound 0.316 µM, first compound 0.0316 µM
[14] = second compound 0.316 µM, first compound 0.1 µM
[15] = second compound 0.316 µM, first compound 0.316 µM
[16] = second compound 0.316 µM, first compound 1 µM
[17] = second compound 0.316 µM, first compound 3.16 µM
[18] = second compound 0.316 µM, first compound 10 µM
[19] = second compound 1 µM, first compound 0.0316 µM
[20] = second compound 1 µM, first compound 0.1 µM
[21] = second compound 1 µM, first compound 0.316 µM
[22] = second compound 1 µM, first compound 1 µM
[23] = second compound 1 µM, first compound 3.16 µM
[24] = second compound 1 µM, first compound 10 µM
[25] = second compound 3.16 µM, first compound 0.0316 µM
[26] = second compound 3.16 µM, first compound 0.1 µM
[27] = second compound 3.16 µM, first compound 0.316 µM
[28] = second compound 3.16 µM, first compound 1 µM
[29] = second compound 3.16 µM, first compound 3.16 µM
[30] = second compound 3.16 µM, first compound 10 µM
[31] = second compound 10 µM, first compound 0.0316 µM
[32] = second compound 10 µM, first compound 0.1 µM
[33] = second compound 10 µM, first compound 0.316 µM
[34] = second compound 10 µM, first compound 1 µM
[35] = second compound 10 µM, first compound 3.16 µM
[36] = second compound 10 µM, first compound 10 µM
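Also: luminescence signal used as surrogate measure of viable cells; spheroids exposed to compounds for seven days before readout.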
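For viability, T/C in this document: 100% = DMSO vehicle control viability as luminescence relative to vehicle.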

CC1COCCN1c1cc(-c2ccnn2C)c2ccnc(-c3ccn[nH]3)c2n1 (stereo not drawn) + Cc1cccc(N(C)C(=O)C2C(O)CCN2c2nc(C)cc(C(F)(F)F)c2C#N)c1
IC50 (second compound 0.0316 µM): 135 nM | IC50 (second compound 0.1 µM): 121 nM | IC50 (second compound 0.316 µM): 128 nM | IC50 (second compound 1 µM): 88.5 nM | IC50 (second compound 3.16 µM): 90.9 nM | IC50 (second compound 10 µM): 106 nM | viability, T/C [1]: 88.1% | viability, T/C [2]: 54.9% | viability, T/C [3]: 34.8% | viability, T/C [4]: 15.2% | viability, T/C [5]: 9.81% | viability, T/C [6]: 10.9% | viability, T/C [7]: 83.7% | viability, T/C [8]: 54.4% | viability, T/C [9]: 26.7% | viability, T/C [10]: 11.2% | viability, T/C [11]: 9.92% | viability, T/C [12]: 10.2% | viability, T/C [13]: 82.1% | viability, T/C [14]: 55.4% | viability, T/C [15]: 29.9% | viability, T/C [16]: 12.9% | viability, T/C [17]: 9.82% | viability, T/C [18]: 8.22% | viability, T/C [19]: 86.3% | viability, T/C [20]: 44.1% | viability, T/C [21]: 28.4% | viability, T/C [22]: 13.8% | viability, T/C [23]: 11.9% | viability, T/C [24]: 9.85% | viability, T/C [25]: 77.9% | viability, T/C [26]: 44.1% | viability, T/C [27]: 35% | viability, T/C [28]: 16.1% | viability, T/C [29]: 11.2% | viability, T/C [30]: 10.4% | viability, T/C [31]: 77.4% | viability, T/C [32]: 50.7% | viability, T/C [33]: 30.7% | viability, T/C [34]: 17.7% | viability, T/C [35]: 11.7% | viability, T/C [36]: 9.99%

CCc1c2c(nc3ccc(O)cc13)-c1cc3c(c(=O)n1C2)COC(=O)[C@]3(O)CC + Cc1cccc(N(C)C(=O)C2C(O)CCN2c2nc(C)cc(C(F)(F)F)c2C#N)c1
IC50 (second compound 0.0316 µM): < 3.16 nM | IC50 (second compound 0.1 µM): < 3.16 nM | IC50 (second compound 0.316 µM): < 3.16 nM | IC50 (second compound 1 µM): < 3.16 nM | IC50 (second compound 3.16 µM): < 3.16 nM | IC50 (second compound 10 µM): < 3.16 nM | viability, T/C (second compound 0.0316 µM, first compound 0.00316 µM): 16.9% | viability, T/C (second compound 0.0316 µM, first compound 0.01 µM): 17.8% | viability, T/C [1]: 16.1% | viability, T/C [2]: 17.5% | viability, T/C [3]: 13.3% | viability, T/C [4]: 5.41% | viability, T/C (second compound 0.1 µM, first compound 0.00316 µM): 17.8% | viability, T/C (second compound 0.1 µM, first compound 0.01 µM): 18.5% | viability, T/C [7]: 17.6% | viability, T/C [8]: 19% | viability, T/C [9]: 13.6% | viability, T/C [10]: 4.17% | viability, T/C (second compound 0.316 µM, first compound 0.00316 µM): 16.2% | viability, T/C (second compound 0.316 µM, first compound 0.01 µM): 20.4% | viability, T/C [13]: 16.4% | viability, T/C [14]: 17.6% | viability, T/C [15]: 14.1% | viability, T/C [16]: 6.26% | viability, T/C (second compound 1 µM, first compound 0.00316 µM): 21.1% | viability, T/C (second compound 1 µM, first compound 0.01 µM): 16.7% | viability, T/C [19]: 17.5% | viability, T/C [20]: 16.5% | viability, T/C [21]: 17.5% | viability, T/C [22]: 3.94% | viability, T/C (second compound 3.16 µM, first compound 0.00316 µM): 19.9% | viability, T/C (second compound 3.16 µM, first compound 0.01 µM): 17.4% | viability, T/C [25]: 21.6% | viability, T/C [26]: 16.1% | viability, T/C [27]: 14.9% | viability, T/C [28]: 5.15% | viability, T/C (second compound 10 µM, first compound 0.00316 µM): 18.9% | viability, T/C (second compound 10 µM, first compound 0.01 µM): 17.5% | viability, T/C [31]: 20.7% | viability, T/C [32]: 17.5% | viability, T/C [33]: 17.9% | viability, T/C [34]: 3.41%

C=CC(=O)N1CCN(c2nc(=O)n(-c3c(C)ccnc3C(C)C)c3nc(-c4c(O)cccc4F)c(F)cc23)C(C)C1 (stereo not drawn) + Nc1ccc(C#CCN(C(=O)Cc2ncc(C(F)(F)F)cc2C(F)(F)F)c2ccc(F)cc2)nn1
IC50 (second compound 0.0316 µM): > 10000 nM | IC50 (second compound 0.1 µM): > 10000 nM | IC50 (second compound 0.316 µM): > 10000 nM | IC50 (second compound 1 µM): > 10000 nM | IC50 (second compound 3.16 µM): > 10000 nM | IC50 (second compound 10 µM): > 10000 nM | viability, T/C [1]: 101% | viability, T/C [2]: 97.2% | viability, T/C [3]: 97.2% | viability, T/C [4]: 114% | viability, T/C [5]: 108% | viability, T/C [6]: 93.8% | viability, T/C [7]: 97.7% | viability, T/C [8]: 113% | viability, T/C [9]: 108% | viability, T/C [10]: 114% | viability, T/C [11]: 102% | viability, T/C [12]: 96.8% | viability, T/C [13]: 108% | viability, T/C [14]: 97.6% | viability, T/C [15]: 99.6% | viability, T/C [16]: 103% | viability, T/C [17]: 109% | viability, T/C [18]: 94.1% | viability, T/C [19]: 98.9% | viability, T/C [20]: 103% | viability, T/C [21]: 99.3% | viability, T/C [22]: 112% | viability, T/C [23]: 98.4% | viability, T/C [24]: 91.8% | viability, T/C [25]: 107% | viability, T/C [26]: 105% | viability, T/C [27]: 109% | viability, T/C [28]: 115% | viability, T/C [29]: 104% | viability, T/C [30]: 97.3% | viability, T/C [31]: 104% | viability, T/C [32]: 98.8% | viability, T/C [33]: 111% | viability, T/C [34]: 108% | viability, T/C [35]: 95.7% | viability, T/C [36]: 96.8%

CCCS(=O)(=O)Nc1ccc(F)c(C(=O)c2c[nH]c3ncc(-c4ccc(Cl)cc4)cc23)c1F + Nc1ccc(C#CCN(C(=O)Cc2ncc(C(F)(F)F)cc2C(F)(F)F)c2ccc(F)cc2)nn1
IC50 (second compound 0.0316 µM): > 10000 nM | IC50 (second compound 0.1 µM): > 10000 nM | IC50 (second compound 0.316 µM): > 10000 nM | IC50 (second compound 1 µM): > 10000 nM | IC50 (second compound 3.16 µM): > 10000 nM | IC50 (second compound 10 µM): > 10000 nM | viability, T/C [1]: 99% | viability, T/C [2]: 111% | viability, T/C [3]: 101% | viability, T/C [4]: 110% | viability, T/C [5]: 104% | viability, T/C [6]: 93.3% | viability, T/C [7]: 106% | viability, T/C [8]: 102% | viability, T/C [9]: 96.9% | viability, T/C [10]: 100% | viability, T/C [11]: 98.3% | viability, T/C [12]: 88.7% | viability, T/C [13]: 105% | viability, T/C [14]: 108% | viability, T/C [15]: 106% | viability, T/C [16]: 106% | viability, T/C [17]: 108% | viability, T/C [18]: 93.4% | viability, T/C [19]: 114% | viability, T/C [20]: 99.5% | viability, T/C [21]: 97.4% | viability, T/C [22]: 104% | viability, T/C [23]: 112% | viability, T/C [24]: 91% | viability, T/C [25]: 105% | viability, T/C [26]: 104% | viability, T/C [27]: 94.6% | viability, T/C [28]: 102% | viability, T/C [29]: 101% | viability, T/C [30]: 94.9% | viability, T/C [31]: 116% | viability, T/C [32]: 98.3% | viability, T/C [33]: 105% | viability, T/C [34]: 108% | viability, T/C [35]: 102% | viability, T/C [36]: 89.1%
